# Measurements from ChEMBL document CHEMBL4507302, “Data for DCP probe TP-020” (2021).
# Assays:
# [1] = test system: Tyrosine-protein kinase ABL1 (Homo sapiens), P00519 [H396P]; conditions: Compound concentration 1000.0 nM
# [2] = test system: ALK tyrosine kinase receptor (Homo sapiens), Q9UM73 [L1196M]; conditions: Compound concentration 1000.0 nM
# [3] = biological target: 5'-AMP-activated protein kinase catalytic subunit alpha-2 (Homo sapiens) (UniProt P54646); conditions: Compound concentration 1000.0 nM
# [4] = biological target: Bone morphogenetic protein receptor type-1B (Homo sapiens) (UniProt O00238); conditions: Compound concentration 1000.0 nM
# [5] = biological target: Dual specificity protein kinase CLK1 (Homo sapiens) (UniProt P49759); conditions: Compound concentration 1000.0 nM
# [6] = biological target: Macrophage colony-stimulating factor 1 receptor (Homo sapiens) (UniProt P07333); conditions: Compound concentration 1000.0 nM
# [7] = biological target: Tyrosine-protein kinase CSK (Homo sapiens) (UniProt P41240); conditions: Compound concentration 1000.0 nM
# [8] = biological target: Casein kinase I isoform gamma-1 (Homo sapiens) (UniProt Q9HCP0); conditions: Compound concentration 1000.0 nM
# [9] = biological target: Serine/threonine-protein kinase 17A (Homo sapiens) (UniProt Q9UEE5); conditions: Compound concentration 1000.0 nM
# [10] = biological target: Receptor tyrosine-protein kinase erbB-4 (Homo sapiens) (UniProt Q15303); conditions: Compound concentration 1000.0 nM
# [11] = biological target: Mitogen-activated protein kinase 7 (Homo sapiens) (UniProt Q13164); conditions: Compound concentration 1000.0 nM
# [12] = biological target: Tyrosine-protein kinase Fer (Homo sapiens) (UniProt P16591); conditions: Compound concentration 1000.0 nM
# [13] = biological target: Cyclin-G-associated kinase (Homo sapiens) (UniProt O14976); conditions: Compound concentration 1000.0 nM
# [14] = test system: eIF-2-alpha kinase GCN2 (Homo sapiens), Q9P2K8 [S808G]; conditions: Compound concentration 1000.0 nM
# [15] = biological target: G protein-coupled receptor kinase 4 (Homo sapiens) (UniProt P32298); conditions: Compound concentration 1000.0 nM
# [16] = biological target: Glycogen synthase kinase-3 beta (Homo sapiens) (UniProt P49841); conditions: Compound concentration 1000.0 nM
# [17] = biological target: Serine/threonine-protein kinase haspin (Homo sapiens) (UniProt Q8TF76); conditions: Compound concentration 1000.0 nM
# [18] = biological target: Tyrosine-protein kinase JAK1 (Homo sapiens) (UniProt P23458); conditions: Compound concentration 1000.0 nM
# [19] = test system: Mast/stem cell growth factor receptor Kit (Homo sapiens), P10721 [A829P]; conditions: Compound concentration 1000.0 nM
# [20] = biological target: Serine/threonine-protein kinase LATS2 (Homo sapiens) (UniProt Q9NRM7); conditions: Compound concentration 1000.0 nM
# [21] = biological target: Leucine-rich repeat serine/threonine-protein kinase 2 (Homo sapiens) (UniProt Q5S007); conditions: Compound concentration 1000.0 nM
# [22] = biological target: Dual specificity mitogen-activated protein kinase kinase 5 (Homo sapiens) (UniProt Q13163); conditions: Compound concentration 1000.0 nM
# [23] = biological target: MAP kinase-interacting serine/threonine-protein kinase 1 (Homo sapiens) (UniProt Q9BUB5); conditions: Compound concentration 1000.0 nM
# [24] = biological target: Myosin light chain kinase (Homo sapiens) (UniProt Q32MK0); conditions: Compound concentration 1000.0 nM
# [25] = biological target: Mitogen-activated protein kinase kinase kinase 9 (Homo sapiens) (UniProt P80192); conditions: Compound concentration 1000.0 nM
# [26] = biological target: Serine/threonine-protein kinase Nek4 (Homo sapiens) (UniProt P51957); conditions: Compound concentration 1000.0 nM
# [27] = biological target: Mitogen-activated protein kinase 13 (Homo sapiens) (UniProt O15264); conditions: Compound concentration 1000.0 nM
# [28] = biological target: Phosphorylase b kinase regulatory subunit alpha, liver isoform (Homo sapiens) (UniProt P46019); conditions: Compound concentration 1000.0 nM
# [29] = biological target: Phosphatidylinositol 4,5-bisphosphate 3-kinase catalytic subunit beta isoform (Homo sapiens) (UniProt P42338); conditions: Compound concentration 1000.0 nM
# [30] = biological target: Phosphatidylinositol 5-phosphate 4-kinase type-2 gamma (Homo sapiens) (UniProt Q8TBX8); conditions: Compound concentration 1000.0 nM
# [31] = biological target: Serine/threonine-protein kinase PLK1 (Homo sapiens) (UniProt P53350); conditions: Compound concentration 1000.0 nM
# [32] = biological target: Serine/threonine-protein kinase PLK4 (Homo sapiens) (UniProt O00444); conditions: Compound concentration 1000.0 nM
# [33] = biological target: Serine/threonine-protein kinase D3 (Homo sapiens) (UniProt O94806); conditions: Compound concentration 1000.0 nM
# [34] = biological target: Ribosomal protein S6 kinase alpha-2 (Homo sapiens) (UniProt Q15349); conditions: Compound concentration 1000.0 nM
# [35] = biological target: STE20-like serine/threonine-protein kinase (Homo sapiens) (UniProt Q9H2G2); conditions: Compound concentration 1000.0 nM
# [36] = biological target: SRSF protein kinase 3 (Homo sapiens) (UniProt Q9UPE1); conditions: Compound concentration 1000.0 nM
# [37] = biological target: Testis-specific serine/threonine-protein kinase 1 (Homo sapiens) (UniProt Q9BXA7); conditions: Compound concentration 1000.0 nM
# [38] = biological target: Serine/threonine-protein kinase ULK1 (Homo sapiens) (UniProt O75385); conditions: Compound concentration 1000.0 nM
# [39] = biological target: Serine/threonine-protein kinase VRK2 (Homo sapiens) (UniProt Q86Y07); conditions: Compound concentration 1000.0 nM
# [40] = biological target: Serine/threonine-protein kinase 32B (Homo sapiens) (UniProt Q9NY57); conditions: Compound concentration 1000.0 nM
# [41] = biological target: 5-hydroxytryptamine receptor 1B (Homo sapiens) (UniProt P28222); conditions: Compound concentration 10.0 uM
# [42] = biological target: 5-hydroxytryptamine receptor 1D (Homo sapiens, UniProt P28221); conditions: Compound concentration 10.0 uM
# [43] = biological target: D(1A) dopamine receptor (Homo sapiens) (UniProt P21728); conditions: Compound concentration 10.0 uM
# [44] = biological target: Delta-type opioid receptor (Homo sapiens) (UniProt P41143); conditions: Compound concentration 10.0 uM
# Rattus norvegicus = species on record: Rattus norvegicus; conditions: Compound concentration 10.0 uM
# Phosphatidylinositol 4,5-bisphosphate 3-kinase catalytic subunit beta isoform (Homo sapiens), sequence (P42338 whole entry, looked up, canonical isoform): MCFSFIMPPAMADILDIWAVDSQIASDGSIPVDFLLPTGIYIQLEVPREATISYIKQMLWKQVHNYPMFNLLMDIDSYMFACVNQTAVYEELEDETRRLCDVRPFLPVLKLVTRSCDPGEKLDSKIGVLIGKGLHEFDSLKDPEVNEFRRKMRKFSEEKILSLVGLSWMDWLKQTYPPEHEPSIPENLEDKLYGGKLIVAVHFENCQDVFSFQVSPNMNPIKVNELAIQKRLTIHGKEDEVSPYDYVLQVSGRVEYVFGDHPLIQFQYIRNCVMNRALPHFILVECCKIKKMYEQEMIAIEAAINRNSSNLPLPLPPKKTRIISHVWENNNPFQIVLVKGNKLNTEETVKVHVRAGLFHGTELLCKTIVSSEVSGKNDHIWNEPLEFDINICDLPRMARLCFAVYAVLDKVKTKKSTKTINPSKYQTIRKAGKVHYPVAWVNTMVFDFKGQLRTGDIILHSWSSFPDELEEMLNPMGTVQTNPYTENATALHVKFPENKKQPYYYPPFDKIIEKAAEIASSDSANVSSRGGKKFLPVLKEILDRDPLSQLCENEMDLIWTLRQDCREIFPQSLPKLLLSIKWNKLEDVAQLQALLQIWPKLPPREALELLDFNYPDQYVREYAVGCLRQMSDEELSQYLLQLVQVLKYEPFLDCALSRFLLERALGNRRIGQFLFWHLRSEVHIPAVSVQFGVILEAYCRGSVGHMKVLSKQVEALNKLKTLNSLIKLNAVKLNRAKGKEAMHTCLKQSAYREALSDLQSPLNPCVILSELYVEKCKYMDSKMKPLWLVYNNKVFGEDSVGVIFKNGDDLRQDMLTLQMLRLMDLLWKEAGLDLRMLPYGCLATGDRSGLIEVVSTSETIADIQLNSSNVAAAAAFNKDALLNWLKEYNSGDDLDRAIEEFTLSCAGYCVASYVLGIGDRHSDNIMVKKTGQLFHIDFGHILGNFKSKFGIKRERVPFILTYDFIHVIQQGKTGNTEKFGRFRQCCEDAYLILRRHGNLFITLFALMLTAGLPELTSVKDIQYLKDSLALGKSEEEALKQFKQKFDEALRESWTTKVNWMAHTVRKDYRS
# Serine/threonine-protein kinase 17A (Homo sapiens), sequence (Q9UEE5 whole entry): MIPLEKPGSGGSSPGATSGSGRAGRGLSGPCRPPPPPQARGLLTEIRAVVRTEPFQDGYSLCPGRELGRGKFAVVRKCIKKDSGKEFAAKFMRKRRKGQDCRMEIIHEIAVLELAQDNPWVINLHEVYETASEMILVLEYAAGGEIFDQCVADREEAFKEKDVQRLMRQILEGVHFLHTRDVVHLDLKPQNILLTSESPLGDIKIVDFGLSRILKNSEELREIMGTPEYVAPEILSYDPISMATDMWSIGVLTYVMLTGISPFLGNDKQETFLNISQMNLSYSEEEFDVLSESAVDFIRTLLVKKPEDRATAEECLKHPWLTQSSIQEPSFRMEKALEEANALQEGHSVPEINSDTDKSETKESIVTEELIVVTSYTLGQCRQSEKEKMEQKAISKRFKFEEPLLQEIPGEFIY
# ALK tyrosine kinase receptor (Homo sapiens), Q9UM73 [L1196M], sequence (Q9UM73 whole entry L1196M, looked up): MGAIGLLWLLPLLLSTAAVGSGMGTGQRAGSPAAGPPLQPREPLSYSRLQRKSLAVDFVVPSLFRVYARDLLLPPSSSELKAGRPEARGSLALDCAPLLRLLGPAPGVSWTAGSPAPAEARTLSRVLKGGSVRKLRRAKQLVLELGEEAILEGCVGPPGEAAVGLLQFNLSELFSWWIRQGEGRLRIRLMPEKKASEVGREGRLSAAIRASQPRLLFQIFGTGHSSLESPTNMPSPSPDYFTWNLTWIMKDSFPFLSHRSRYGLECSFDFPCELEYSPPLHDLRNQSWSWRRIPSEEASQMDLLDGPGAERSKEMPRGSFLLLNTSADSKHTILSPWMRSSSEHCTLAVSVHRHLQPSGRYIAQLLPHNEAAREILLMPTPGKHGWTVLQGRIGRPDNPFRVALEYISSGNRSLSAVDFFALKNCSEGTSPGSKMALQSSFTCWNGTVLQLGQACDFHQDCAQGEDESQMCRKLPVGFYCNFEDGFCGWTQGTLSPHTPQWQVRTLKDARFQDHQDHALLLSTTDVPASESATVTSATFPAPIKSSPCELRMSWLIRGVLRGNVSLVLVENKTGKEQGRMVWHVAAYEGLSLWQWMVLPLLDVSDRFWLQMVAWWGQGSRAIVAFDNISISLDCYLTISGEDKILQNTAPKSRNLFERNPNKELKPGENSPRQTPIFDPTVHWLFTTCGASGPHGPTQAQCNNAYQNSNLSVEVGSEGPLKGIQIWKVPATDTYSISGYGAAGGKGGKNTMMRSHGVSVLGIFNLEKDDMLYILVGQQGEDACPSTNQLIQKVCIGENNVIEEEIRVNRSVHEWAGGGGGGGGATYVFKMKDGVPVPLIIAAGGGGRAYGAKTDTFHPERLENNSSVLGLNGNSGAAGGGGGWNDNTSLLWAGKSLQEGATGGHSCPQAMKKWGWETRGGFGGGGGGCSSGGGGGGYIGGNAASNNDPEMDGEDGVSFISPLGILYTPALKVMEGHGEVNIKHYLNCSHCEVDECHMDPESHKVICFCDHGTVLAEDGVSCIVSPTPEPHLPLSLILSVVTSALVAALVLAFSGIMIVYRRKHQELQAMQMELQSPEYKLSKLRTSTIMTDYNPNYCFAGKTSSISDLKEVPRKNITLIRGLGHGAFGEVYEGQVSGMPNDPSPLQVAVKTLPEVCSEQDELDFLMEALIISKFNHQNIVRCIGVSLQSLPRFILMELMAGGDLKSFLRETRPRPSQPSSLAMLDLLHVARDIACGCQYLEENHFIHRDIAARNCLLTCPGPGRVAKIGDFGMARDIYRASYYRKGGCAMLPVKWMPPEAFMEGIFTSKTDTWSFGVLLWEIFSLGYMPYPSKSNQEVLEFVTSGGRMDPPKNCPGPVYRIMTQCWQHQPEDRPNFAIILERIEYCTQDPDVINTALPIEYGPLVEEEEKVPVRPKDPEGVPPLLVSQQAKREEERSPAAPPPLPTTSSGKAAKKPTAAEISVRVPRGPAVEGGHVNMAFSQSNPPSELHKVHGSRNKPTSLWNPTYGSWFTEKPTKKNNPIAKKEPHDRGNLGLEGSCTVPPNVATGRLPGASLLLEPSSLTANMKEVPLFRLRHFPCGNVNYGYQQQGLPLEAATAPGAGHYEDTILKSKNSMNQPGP
# Ribosomal protein S6 kinase alpha-2 (Homo sapiens), sequence (Q15349 whole entry): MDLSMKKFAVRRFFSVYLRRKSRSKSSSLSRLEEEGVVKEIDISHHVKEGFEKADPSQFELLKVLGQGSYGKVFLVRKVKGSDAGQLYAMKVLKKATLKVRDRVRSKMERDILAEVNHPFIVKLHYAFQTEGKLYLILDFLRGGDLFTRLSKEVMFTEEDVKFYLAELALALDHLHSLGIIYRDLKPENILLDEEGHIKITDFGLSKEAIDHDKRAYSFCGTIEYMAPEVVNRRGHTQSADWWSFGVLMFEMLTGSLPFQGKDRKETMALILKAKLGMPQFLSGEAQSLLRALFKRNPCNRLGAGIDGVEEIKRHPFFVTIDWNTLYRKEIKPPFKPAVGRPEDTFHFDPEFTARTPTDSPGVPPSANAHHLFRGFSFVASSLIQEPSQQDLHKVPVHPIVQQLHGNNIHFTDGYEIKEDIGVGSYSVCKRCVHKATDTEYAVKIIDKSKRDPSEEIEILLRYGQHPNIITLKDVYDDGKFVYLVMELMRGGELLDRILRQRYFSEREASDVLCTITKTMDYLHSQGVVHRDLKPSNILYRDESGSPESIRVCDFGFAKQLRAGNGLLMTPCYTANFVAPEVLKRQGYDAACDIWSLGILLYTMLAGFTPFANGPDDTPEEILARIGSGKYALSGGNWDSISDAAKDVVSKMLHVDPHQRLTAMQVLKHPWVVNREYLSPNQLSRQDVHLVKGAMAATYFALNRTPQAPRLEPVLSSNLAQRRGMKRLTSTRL
# 5-hydroxytryptamine receptor 1D, sequence (P28221 whole entry): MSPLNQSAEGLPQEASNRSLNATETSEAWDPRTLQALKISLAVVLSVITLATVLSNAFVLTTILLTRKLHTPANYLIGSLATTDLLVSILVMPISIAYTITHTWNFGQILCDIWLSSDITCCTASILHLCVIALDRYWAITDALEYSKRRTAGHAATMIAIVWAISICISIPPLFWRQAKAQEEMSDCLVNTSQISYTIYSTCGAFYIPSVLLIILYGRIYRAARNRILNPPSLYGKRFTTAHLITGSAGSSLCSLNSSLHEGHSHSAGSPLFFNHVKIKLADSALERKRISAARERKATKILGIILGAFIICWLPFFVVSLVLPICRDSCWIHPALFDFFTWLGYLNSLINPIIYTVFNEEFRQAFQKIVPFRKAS
# Delta-type opioid receptor (Homo sapiens), sequence (P41143 whole entry): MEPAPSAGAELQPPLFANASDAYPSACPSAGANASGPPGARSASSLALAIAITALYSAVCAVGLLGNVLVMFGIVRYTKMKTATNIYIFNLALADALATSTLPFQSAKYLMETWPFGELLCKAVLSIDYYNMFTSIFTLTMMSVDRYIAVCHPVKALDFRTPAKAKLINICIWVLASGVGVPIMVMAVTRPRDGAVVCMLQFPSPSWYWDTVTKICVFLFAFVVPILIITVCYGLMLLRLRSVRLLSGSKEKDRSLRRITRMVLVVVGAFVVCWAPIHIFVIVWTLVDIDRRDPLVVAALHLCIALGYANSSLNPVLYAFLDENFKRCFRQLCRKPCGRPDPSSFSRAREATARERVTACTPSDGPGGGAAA
# Glycogen synthase kinase-3 beta (Homo sapiens), sequence (P49841 whole entry, looked up): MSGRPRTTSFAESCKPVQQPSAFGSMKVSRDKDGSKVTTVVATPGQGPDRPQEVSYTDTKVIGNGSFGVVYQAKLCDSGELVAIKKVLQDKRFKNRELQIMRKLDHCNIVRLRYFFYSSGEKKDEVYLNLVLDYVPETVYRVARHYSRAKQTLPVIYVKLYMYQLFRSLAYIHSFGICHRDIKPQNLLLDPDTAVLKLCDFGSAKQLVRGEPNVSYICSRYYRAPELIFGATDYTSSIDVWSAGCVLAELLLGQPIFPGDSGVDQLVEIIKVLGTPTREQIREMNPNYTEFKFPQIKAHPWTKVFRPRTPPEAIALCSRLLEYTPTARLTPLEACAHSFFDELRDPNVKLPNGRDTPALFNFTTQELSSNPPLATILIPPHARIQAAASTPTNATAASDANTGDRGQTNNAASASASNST
smiles,measurement,setting,value
Nc1cnc(N2CCc3cc(S(=O)(=O)Nc4c(F)cc(Cl)cc4F)cc(N4CCCC4=O)c32)nc1,residual activity,[1],94%
same,residual activity,[2],81%
same,residual activity,[3],100%
same,residual activity,[4],100%
same,residual activity,[5],85%
same,residual activity,[6],100%
same,residual activity,[7],99%
same,residual activity,[8],97%
same,residual activity,[9],100%
same,residual activity,[10],100%
same,residual activity,[11],100%
same,residual activity,[12],100%
same,residual activity,[13],100%
same,residual activity,[14],100%
same,residual activity,[15],100%
same,residual activity,[16],100%
same,residual activity,[17],100%
same,residual activity,[18],93%
same,residual activity,[19],100%
same,residual activity,[20],100%
same,residual activity,[21],97%
same,residual activity,[22],84%
same,residual activity,[23],98%
same,residual activity,[24],100%
same,residual activity,[25],100%
same,residual activity,[26],97%
same,residual activity,[27],100%
same,residual activity,[28],100%
same,residual activity,[29],87%
same,residual activity,[30],100%
same,residual activity,[31],100%
same,residual activity,[32],100%
same,residual activity,[33],88%
same,residual activity,[34],100%
same,residual activity,[35],100%
same,residual activity,[36],100%
same,residual activity,[37],100%
same,residual activity,[38],95%
same,residual activity,[39],100%
same,residual activity,[40],74%
same,inhibition,[41],-3.82%
same,inhibition,[42],9.24%
same,inhibition,[43],-8.35%
same,inhibition,[44],-1.24%
same,inhibition,Rattus norvegicus,-2.65%
Cn1nc(C(F)(F)F)cc1-c1cnc(N2CCc3cc(S(=O)(=O)Nc4c(F)cc(Cl)cc4F)cc(N4CCCC4=O)c32)nc1 [TP-020],residual activity,[1],81%
same,residual activity,[2],78%
same,residual activity,[3],97%
same,residual activity,[4],83%
same,residual activity,[5],87%
same,residual activity,[6],91%
same,residual activity,[7],93%
same,residual activity,[8],100%
same,residual activity,[9],83%
same,residual activity,[10],94%
same,residual activity,[11],100%
same,residual activity,[12],100%
same,residual activity,[13],94%
same,residual activity,[14],100%
same,residual activity,[15],100%
same,residual activity,[16],100%
same,residual activity,[17],68%
same,residual activity,[18],96%
same,residual activity,[19],80%
same,residual activity,[20],93%
same,residual activity,[21],79%
same,residual activity,[22],83%
same,residual activity,[23],72%
same,residual activity,[24],84%
same,residual activity,[25],100%
same,residual activity,[26],72%
same,residual activity,[27],100%
same,residual activity,[28],96%
same,residual activity,[29],85%
same,residual activity,[30],66%
same,residual activity,[31],93%
same,residual activity,[32],77%
same,residual activity,[33],100%
same,residual activity,[34],77%
same,residual activity,[35],100%
same,residual activity,[36],100%
same,residual activity,[37],100%
same,residual activity,[38],79%
same,residual activity,[39],61%
same,residual activity,[40],95%
same,inhibition,[41],9.13%
same,inhibition,[42],55.3%
same,inhibition,[43],-6.95%
same,inhibition,[44],28.7%
same,inhibition,Rattus norvegicus,-9.93%
